A word on the IC50: it is the midpoint of a concentration-inhibition curve. A low value points to greater potency in that assay.

Molecules are shown by their SMILES.

What all share (test): Cell proliferation assay (CCK-8)
Common to all, as to type: cell-based

Test [1] has as its system Human cervical cancer Hela cells. To be noted: 72 h. An excerpt:
(§1) CCK-8 method: The CCK-8 method is a highly sensitive, non-radioactive colorimetric assay for the determination of the number of viable cells in cell proliferation or cytotoxicity assays. The orange formazan dye produced by the bioreduction of CCK-8 by intracellular dehydrogenase is soluble in the cell culture medium, and the amount of formazan dye produced is proportional to the number of living cells. The kit used in this method is the tetrazolium salt-WST-8 (2-(2-methoxy-4-nitrophenyl)-3-(4-nitrophenyl)-5-(2,4-disulfophenyl)-2H-tetrazolium monosodium salt) developed by Dojindo Chemical Research Institute (Dojindo), which is capable of being reduced to a water-soluble formazan dye in the presence of the electronic carrier 1-Methoxy PMS.
(§2) Human cervical cancer Hela cells, pancreatic cancer PANC-1 cells, esophageal cancer Eca-109 cells, human leukemia K562 cells, human lung cancer A549 cells, human liver cancer HepG2 cells, human gastric cancer MKN-45 cells, human breast cancer MCF7 cells were cultured in DMEM medium containing 10% FBS (fetal bovine serum), 100 U/mL penicillin and 100 μg/ml streptomycin. Hepatocellular carcinoma cells Bel-7402 were cultured in RPMI-1640 medium containing 10% FBS (fetal bovine serum), 100 U/ml penicillin and 100 μg/ml streptomycin. All cells were placed in a cell culture incubator at 37° C. with 5% CO2. Cells fluid was changed every 3-5 days, and after 80% cell fusion, trypsin digestion and passaging were performed to keep the cells in good logarithmic growth phase.
(§3) All the samples to be tested were dissolved in DMSO.
(§4) Cells in logarithmic growth phase were inoculated in 96-well plates with 5000 cells/well respectively, and after 24 h of incubation, samples were added (final concentrations as shown in the table), and biplicate wells were set up for each sample. The amount of solvent of DMSO was not higher than 2‰. After 72 h, 10 μL of CCK-8 solution was added to each well and incubated for 1.5˜3 h at 37° C. The OD value at 450 nm was measured on an plate reader.
(§5) Inhibition rate (%)=(1−[(OD450 dosed well−OD450 blank well)/(OD450 control well−OD450 blank well)])×100%
(§6) The fitted IC50 values were calculated using the log (inhibitor) vs. response-Variable slop analysis method in GraphPad Prism software.

Test [2] deals with esophageal cancer Eca-109 cells. As to conditions: Homo sapiens, Eca-109, 72 h.
Source text: as §1, §2, §3, §4, §5, §6

The subject of test [3] is human breast cancer MCF7 cells. To be noted: MCF7, 72 h.
Source text: as §1, §2, §3, §4, §5, §6

Test [4] has as its system human gastric cancer MKN-45 cells. As to conditions: MKN-45, 72 h.
Source text: as §1, §2, §3, §4, §5, §6

The subject of test [5] is human leukemia K562 cells. As to conditions: K562, 72 h.
Source text: as §1, §2, §3, §4, §5, §6

Test [6] relates to human liver cancer HepG2 cells. To be noted: HepG2, 72 h.
Source text: as §1, §2, §3, §4, §5, §6

In test [7] the test system is human lung cancer A549 cells. As to conditions: A549, 72 h.
Source text: as §1, §2, §3, §4, §5, §6

In test [8] the test system is pancreatic cancer PANC-1 cells. As to conditions: Homo sapiens, PANC-1, 72 h.
Source text: as §1, §2, §3, §4, §5, §6

With `Cc1cccc(/C=C/C(=O)O[C@@H]2/C=C/C(=O)O[C@@H](C)CCC/C=C/[C@@H]3C[C@H](O)C[C@H]32)c1` [Compound 6b, 4-O-(3-methylcinnamic acid)acyl BFA], the IC50 in test [1], in test [2], in test [3], in test [4], in test [5] and in test [6] was 0.1 to 1 µM throughout. Moreover, the IC50 in test [7] and in test [8] was 0.1 to 1 µM in each case.

In the case of `Cc1cccc(/C=C/C(=O)O[C@@H]2C[C@H]3[C@H](O)/C=C/C(=O)O[C@@H](C)CCC/C=C/[C@@H]3C2)c1` [Compound 6a, 7-O-(3-methylcinnamic acid)acyl BFA], the concentration for half-maximal inhibition (IC50) in test [1] lay within 1 to 10 µM; in test [2] it was 0.1 to 1 µM; in test [3], 0.1 to 1 µM; in test [4], 0.1 to 1 µM; in test [5], 0.1 to 1 µM; in test [6] it was 1 to 10 µM. The IC50 in test [7] and in test [8] was 0.1 to 1 µM each time.

With `C[C@H]1CCC/C=C/[C@@H]2C[C@H](OC(=O)/C=C/c3ccc(F)cc3)C[C@H]2[C@H](OC(=O)/C=C/c2ccc(F)cc2)/C=C/C(=O)O1` [Compound 3c, 4,7-O-bis(4-fluorocinnamic acid)acyl BFA], the IC50 in test [1], in test [2], in test [3], in test [4], in test [5] and in test [6] was 1 to 10 µM each time. Moreover, the IC50 in test [7] and in test [8] was 0.1 to 1 µM in each case.

Turning to `Cc1cccc(/C=C/C(=O)O[C@@H]2C[C@@H]3[C@H](/C=C/CCC[C@H](C)OC(=O)/C=C/[C@H]3OC(=O)/C=C/c3cccc(C)c3)C2)c1` [Compound 6c, 4,7-O-bis(3-methylcinnamic acid)acyl BFA], the IC50 was 1 to 10 µM in test [1]; 0.1 to 1 µM in test [2]; 1 to 10 µM in test [3]; 0.1 to 1 µM in test [4]; 1 to 10 µM in test [5]; 1 to 10 µM in test [6]. Also, the IC50 in test [7] and in test [8] was 1 to 10 µM in each case.

For the compound `Cc1ccc(/C=C/C(=O)O[C@@H]2/C=C/C(=O)O[C@@H](C)CCC/C=C/[C@@H]3C[C@H](O)C[C@H]32)cc1` [Compound 7b, 4-O-(4-methylcinnamic acid)acyl BFA], the IC50 lay in the range of 1 to 10 µM in test [1]; 0.1 to 1 µM in test [2]; 0.1 to 1 µM in test [3]; 0.1 to 1 µM in test [4]; 1 to 10 µM in test [5]; 0.1 to 1 µM in test [6]. Further, the IC50 in test [7] and in test [8] was 0.1 to 1 µM in each case.

As to `C[C@H]1CCC/C=C/[C@@H]2C[C@H](OC(=O)/C=C/c3cccc(Cl)c3)C[C@H]2[C@H](O)/C=C/C(=O)O1` [Compound 5a, 7-O-(3-chlorocinnamic acid)acyl BFA], the IC50 in test [1] lay in the range of 0.1 to 1 µM; in test [2], 1 to 10 µM; in test [3] it was 0.1 to 1 µM; in test [4], 0.1 to 1 µM; in test [5] it was 0.1 to 1 µM; in test [6], 0.1 to 1 µM. In addition, the IC50 in test [7] and in test [8] was 0.1 to 1 µM throughout.

As to `Cc1ccccc1/C=C/C(=O)O[C@@H]1C[C@@H]2[C@H](/C=C/CCC[C@H](C)OC(=O)/C=C/[C@H]2OC(=O)/C=C/c2ccccc2C)C1` [Compound 8c, 4,7-O-bis(2-methylcinnamic acid)acyl BFA], the IC50 in test [1] was in the range of 1 to 10 µM; in test [2] it was 0.1 to 1 µM; in test [3], 1 to 10 µM; in test [4] it was 0.1 to 1 µM; in test [5], 1 to 10 µM; in test [6], 1 to 10 µM. Also, the IC50 in test [7] and in test [8] was 1 to 10 µM each time.

In the case of `C[C@H]1CCC/C=C/[C@@H]2C[C@H](OC(=O)/C=C/c3ccc(F)cc3)C[C@H]2[C@H](O)/C=C/C(=O)O1` [Compound 3a, 7-O-(4-fluorocinnamic acid)acyl BFA], the IC50 in test [1] is 1 to 10 µM; in test [2], 1 to 10 µM; in test [3], 0.1 to 1 µM; in test [4], 0.1 to 1 µM; in test [5] it was 0.1 to 1 µM; in test [6], 0.1 to 1 µM. Moreover, the IC50 in test [7] and in test [8] was 0.1 to 1 µM each time.

Consider `C[C@H]1CCC/C=C/[C@@H]2C[C@H](OC(=O)/C=C/c3ccc4c(c3)OCO4)C[C@H]2[C@H](O)/C=C/C(=O)O1` [Compound 9a, 7-O—((E)-3-(benzo[d][1,3]dioxa-5-yl)acrylic acid)acyl BFA], for which the IC50 in test [1] was in the range of 1 to 10 µM; in test [2], 1 to 10 µM; in test [3] it was 0.1 to 1 µM; in test [4], 0.1 to 1 µM; in test [5], 0.1 to 1 µM; in test [6], 1 to 10 µM. In addition, the concentration for half-maximal inhibition (IC50) in test [7] and in test [8] was 0.1 to 1 µM throughout.

As for `Cc1ccc(/C=C/C(=O)O[C@@H]2C[C@@H]3[C@H](/C=C/CCC[C@H](C)OC(=O)/C=C/[C@H]3OC(=O)/C=C/c3ccc(C)cc3)C2)cc1` [Compound 7c, 4,7-O-bis(4-methylcinnamic acid)acyl BFA], the IC50 was 1 to 10 µM in test [1]; 0.1 to 1 µM in test [2]; 1 to 10 µM in test [3]; 0.1 to 1 µM in test [4]; 1 to 10 µM in test [5]; 1 to 10 µM in test [6]. For the same compound, the IC50 in test [7] and in test [8] was 1 to 10 µM throughout.

As to `COc1cc(/C=C/C(=O)O[C@@H]2C[C@@H]3[C@H](/C=C/CCC[C@H](C)OC(=O)/C=C/[C@H]3OC(=O)/C=C/c3cc(OC)c(OC)c(OC)c3)C2)cc(OC)c1OC` [Compound 11c, 4,7-O-bis(3,4,5-trimethoxycinnamic acid)acyl BFA], the IC50 lay within 1 to 10 µM in test [1]; 1 to 10 µM in test [2]; 1 to 10 µM in test [3]; 1 to 10 µM in test [4]; 0.1 to 1 µM in test [5]; 1 to 10 µM in test [6]. Besides, the IC50 in test [7] was 0.1 to 1 µM; in test [8], 1 to 10 µM.

As to `C[C@H]1CCC/C=C/[C@@H]2C[C@H](OC(=O)/C=C/c3ccccc3Br)C[C@H]2[C@H](OC(=O)/C=C/c2ccccc2Br)/C=C/C(=O)O1` [Compound 4c, 4,7-O-bis(2-bromocinnamic acid)acyl BFA], the IC50 in test [1] fell in the range of 0.1 to 1 µM; in test [2], 1 to 10 µM; in test [3], 1 to 10 µM; in test [4], 0.1 to 1 µM; in test [5], 1 to 10 µM; in test [6] it was 1 to 10 µM. Further, the IC50 is 0.1 to 1 µM in test [7] and 1 to 10 µM in test [8].

Regarding `C[C@H]1CCC/C=C/[C@@H]2C[C@H](O)C[C@H]2[C@H](OC(=O)/C=C/c2ccc(F)cc2)/C=C/C(=O)O1` [Compound 3b, 4-O-(4-fluorocinnamic acid)acyl BFA], the IC50 in test [1] was 0.1 to 1 µM; in test [2], 1 to 10 µM; in test [3], 0.1 to 1 µM; in test [4] it was 0.1 to 1 µM; in test [5], 0.1 to 1 µM; in test [6], 0.1 to 1 µM. Besides, the IC50 in test [7] and in test [8] was 0.1 to 1 µM each time.

`C[C@H]1CCC/C=C/[C@@H]2C[C@H](OC(=O)/C=C/c3ccncc3)C[C@H]2[C@H](O)/C=C/C(=O)O1` [Compound 14a, 7-O-(3-(pyridine-4-yl)acrylic acid)acyl BFA]: the IC50 was 0.1 to 1 µM in test [1]; 1 to 10 µM in test [2]; 0.1 to 1 µM in test [3]; 0.1 to 1 µM in test [4]; 0.1 to 1 µM in test [5]; less than 0.1 µM in test [6]. For the same compound, the IC50 in test [7] was 0.1 to 1 µM; in test [8], less than 0.1 µM.

With `C[C@H]1CCC/C=C/[C@@H]2C[C@H](OC(=O)/C=C/c3ccc(C(F)(F)F)cc3)C[C@H]2[C@H](OC(=O)/C=C/c2ccc(C(F)(F)F)cc2)/C=C/C(=O)O1` [Compound 13c, 4,7-O-bis(4-trifluoromethylcinnamic acid)acyl BFA], the concentration for half-maximal inhibition (IC50) in test [1] is 1 to 10 µM; in test [2] it was 1 to 10 µM; in test [3], 1 to 10 µM; in test [4], 1 to 10 µM; in test [5], 0.1 to 1 µM; in test [6], 1 to 10 µM. The IC50 was 0.1 to 1 µM in test [7] and 1 to 10 µM in test [8].

The values are drawn from patent publication US20220064138A1, “MACROLIDE BREFELDIN A ESTER DERIVATIVES AND USE THEREOF” (OCEAN UNIVERSITY OF CHINA, priority 2019, published 2022).
